Measured values taken from ChEMBL document CHEMBL1629642, “In vitro efficacy of ST246 against smallpox and monkeypox” (Antimicrob Agents Chemother, 2009).
Calls of active or inactive are those of the source.

What was measured:
Type in all cases: functional, organism-based
Monkeypox virus [1] = experiment: Antiviral activity against Monkeypox virus V77-I-823 infected in african green monkey BSC-40 cells at 0.015 uM by IHC staining-based comet tail reduction assay
Variola virus = experiment: Antiviral activity against Variola virus SLN68-258 infected in african green monkey BSC-40 cells at 0.015 uM assessed as reduction in virus-induced cytopathic effect
Monkeypox virus [2] = experiment: Antiviral activity against Monkeypox virus 2003-USA-039 infected in african green monkey BSC-40 cells assessed as reduction in virus-induced cytopathic effect at 0.015 uM

Measured: Activity

O=C(NN1C(=O)[C@@H]2[C@@H]3C=C[C@@H]([C@H]4C[C@@H]34)[C@@H]2C1=O)c1ccc(C(F)(F)F)cc1 [TECOVIRIMAT]
active: all assays above
